The values that follow come from PubChem BioAssay (NCI).

Values joined by “and” are separate entries in the source; they are usually repeats but may differ in a detail not shown here. Equal values may be shown once.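 Assay format: 96-well plates, 48-hour exposure. At the GI50, growth is halved. TGI denotes the concentration required for complete inhibition of growth.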

Test systems include UACC-62 melanoma; RXF 393 renal; T-47D breast; SF-539 CNS; UACC-257 melanoma; NCI/ADR-RES ovarian; SK-MEL-28 melanoma; OVCAR-5 ovarian; OVCAR-8 ovarian; NCI-H522 lung.
Holding throughout (experiment): NCI anticancer screen, dose series, 48 h

As to `C/C=C(\C)C(=O)O[C@@H]1C=CC(=O)O[C@H]1CNC(=O)[C@H](C)O`, the GI50 in the experiment on UACC-62 melanoma was 16.9 µM; in the experiment with RXF 393 renal, 18.3 µM; with T-47D breast, 21.9 µM; with SF-539 CNS, 23.3 µM; in the experiment on UACC-257 melanoma, 26.9 µM; with NCI/ADR-RES ovarian, 34.6 µM. For the same molecule, the GI50 in the experiment with SK-MEL-28 melanoma is 16.1 µM; with OVCAR-5 ovarian it was 32 µM; in the experiment with OVCAR-8 ovarian, 30.5 µM; in the experiment on NCI-H522 lung, 13.1 µM. The TGI with UACC-62 melanoma was 37.7 µM; with RXF 393 renal, 42.9 µM; in the experiment on T-47D breast, above 66.8 µM; in the experiment with SF-539 CNS, 57.5 µM; in the experiment with UACC-257 melanoma it was above 84.4 µM; with NCI/ADR-RES ovarian, above 100 µM. The TGI with SK-MEL-28 melanoma was 35.8 µM; with OVCAR-5 ovarian, above 73.2 µM; with OVCAR-8 ovarian it was above 100 µM; in the experiment on NCI-H522 lung it was 30.5 µM.

In the case of `CC[Si](CC)(CC)OC1[C@@H](O[Si](CC)(CC)CC)[C@@H](CNC(=O)NC)O[C@H]1n1cnc2c(NC(=O)Nc3ccccc3)ncnc21` (some centres undefined), the GI50 with UACC-62 melanoma is 2.88 µM; with RXF 393 renal, 2.36 µM; in the experiment on T-47D breast, 4.47 µM; in the experiment with SF-539 CNS, 7.02 µM; in the experiment on UACC-257 melanoma, 2.81 µM; in the experiment with NCI/ADR-RES ovarian, 3.96 µM. The GI50 was 4.93 µM in the experiment on SK-MEL-28 melanoma, 4.06 µM with OVCAR-5 ovarian, 3.89 µM in the experiment with OVCAR-8 ovarian and 3.83 µM in the experiment with NCI-H522 lung. For the same molecule, the TGI in the experiment with UACC-62 melanoma is 25.7 µM; with RXF 393 renal it was 4.67 µM; in the experiment with T-47D breast, above 100 µM; in the experiment on SF-539 CNS it was above 100 µM; with UACC-257 melanoma, 55.8 µM; in the experiment on NCI/ADR-RES ovarian, above 100 µM. The TGI is above 100 µM in the experiment with SK-MEL-28 melanoma, 62.1 µM in the experiment on OVCAR-5 ovarian, above 100 µM in the experiment on OVCAR-8 ovarian and 78.5 µM in the experiment with NCI-H522 lung.

Consider `c1ccc(/C(=N\Nc2nc3ccccc3s2)c2ccccn2)cc1`, for which the TGI with UACC-62 melanoma was 27.5 µM; in the experiment with RXF 393 renal, 23.3 µM; in the experiment with T-47D breast, 52.5 µM; in the experiment with SF-539 CNS, above 56.6 µM; with UACC-257 melanoma it was above 25.9 µM; in the experiment with NCI/ADR-RES ovarian, above 100 µM. Besides, the TGI was above 100 µM in the experiment on SK-MEL-28 melanoma, above 51.4 µM in the experiment on OVCAR-5 ovarian, above 100 µM in the experiment with OVCAR-8 ovarian and 36.7 µM in the experiment on NCI-H522 lung.

`COc1ccc(-c2nnc(Nc3nc(O)c(C4=c5cc(Br)ccc5=NC4=O)s3)o2)cc1`: the GI50 with UACC-62 melanoma was 1.08 µM; in the experiment on RXF 393 renal, 5.48 µM; in the experiment with T-47D breast, 41.9 µM; in the experiment with SF-539 CNS it was 17.9 µM; with UACC-257 melanoma it was 7.79 µM; in the experiment with NCI/ADR-RES ovarian it was 22.5 µM. Besides, the GI50 in the experiment on SK-MEL-28 melanoma was 29 µM; in the experiment with OVCAR-5 ovarian, 26.7 µM; with OVCAR-8 ovarian it was 19.3 µM; in the experiment on NCI-H522 lung, 19.8 µM. Besides, the TGI is 26.7 µM in the experiment on UACC-62 melanoma; above 55.6 µM in the experiment on RXF 393 renal; above 100 µM in the experiment on T-47D breast; 41.3 µM in the experiment with SF-539 CNS; 56.9 µM in the experiment with UACC-257 melanoma; above 71.8 µM with NCI/ADR-RES ovarian. The TGI in the experiment with SK-MEL-28 melanoma is above 100 µM; in the experiment with OVCAR-5 ovarian, 80.3 µM; in the experiment with OVCAR-8 ovarian, above 76.4 µM; in the experiment on NCI-H522 lung it was above 74.2 µM.

In the case of `CCN(CC)CCCNc1cc(OC)c(OC)c2cccnc12`, the GI50 in the experiment on UACC-62 melanoma was 3.16 µM; in the experiment on RXF 393 renal, 19.1 µM; in the experiment on T-47D breast, 16.4 µM; with SF-539 CNS, 8.01 µM; with UACC-257 melanoma, 4.55 µM; in the experiment on NCI/ADR-RES ovarian, 15.6 µM. Moreover, the GI50 is 15.7 µM in the experiment with SK-MEL-28 melanoma, 20.6 µM with OVCAR-5 ovarian, 13.3 µM with OVCAR-8 ovarian and 2.38 µM with NCI-H522 lung. The TGI amounted to 28.7 µM in the experiment on UACC-62 melanoma; 34.3 µM in the experiment with RXF 393 renal; 42 µM in the experiment on T-47D breast; 23 µM with SF-539 CNS; 22.4 µM in the experiment with UACC-257 melanoma; 49 µM in the experiment on NCI/ADR-RES ovarian. In addition, the TGI was 32.9 µM in the experiment on SK-MEL-28 melanoma, 51.1 µM in the experiment on OVCAR-5 ovarian, 35.5 µM with OVCAR-8 ovarian and 10.5 µM with NCI-H522 lung.

With `NCCCNc1nc2ccccc2c2c(=O)c3cc(F)cc(Cl)c3sc12`, the GI50 is 1.82 µM in the experiment with UACC-62 melanoma; 1.62 µM with RXF 393 renal; 1.4 µM in the experiment on T-47D breast; 1.83 µM in the experiment on SF-539 CNS; 3.29 µM in the experiment with UACC-257 melanoma; 1.73 µM with NCI/ADR-RES ovarian. In addition, the GI50 was 1.94 µM in the experiment with SK-MEL-28 melanoma, 1.65 µM with OVCAR-5 ovarian, 1.81 µM with OVCAR-8 ovarian and 1.76 µM in the experiment with NCI-H522 lung. The TGI in the experiment on UACC-62 melanoma amounted to 3.52 µM; in the experiment with RXF 393 renal it was 3.16 µM; in the experiment with T-47D breast, 4.23 µM; in the experiment on SF-539 CNS, 3.27 µM; in the experiment on UACC-257 melanoma, 11.2 µM; in the experiment with NCI/ADR-RES ovarian, 3.46 µM. Besides, the TGI with SK-MEL-28 melanoma amounted to 3.49 µM; with OVCAR-5 ovarian, 3.1 µM; in the experiment on OVCAR-8 ovarian, 3.83 µM; in the experiment on NCI-H522 lung it was 3.68 µM.

On to `NC(Cc1c[nH]c2cccc(F)c12)C(=O)O` (centres undefined), for which the GI50 in the experiment with UACC-62 melanoma is 582 µM; in the experiment on RXF 393 renal, 1320 µM; in the experiment on SF-539 CNS, 381 µM; with UACC-257 melanoma it was 1380 µM; in the experiment with NCI/ADR-RES ovarian, 63.9 µM and 418 µM; in the experiment on SK-MEL-28 melanoma, 74.7 µM and 360 µM. Further, the GI50 with OVCAR-5 ovarian was 1280 µM; with OVCAR-8 ovarian, 72.5 µM and 522 µM; in the experiment on NCI-H522 lung, 27.7 µM and 176 µM. Further, the TGI in the experiment with UACC-62 melanoma is 1990 µM; in the experiment on RXF 393 renal it was above 4500 µM; in the experiment with T-47D breast, above 4500 µM; in the experiment with SF-539 CNS, 3040 µM; in the experiment on UACC-257 melanoma, above 4500 µM; with NCI/ADR-RES ovarian, 2360 µM. For the same molecule, the TGI was above 4500 µM in the experiment with SK-MEL-28 melanoma; above 4500 µM in the experiment on OVCAR-5 ovarian; 2820 µM in the experiment with OVCAR-8 ovarian; 74.5 µM and 729 µM with NCI-H522 lung.

Regarding `COc1cccc(-c2nn(-c3ccccc3)cc2-c2ccnc(NCCCNS(=O)(=O)c3ccc(C(F)(F)F)cc3)c2)c1`, the GI50 with UACC-62 melanoma is 7.08 µM; with RXF 393 renal, 3.01 µM; in the experiment with T-47D breast it was 2.54 µM; in the experiment with SF-539 CNS, 5.66 µM; in the experiment on UACC-257 melanoma it was 6.3 µM; in the experiment with NCI/ADR-RES ovarian, 3.86 µM. In addition, the GI50 in the experiment with SK-MEL-28 melanoma was 9.1 µM; with OVCAR-5 ovarian it was above 100 µM; in the experiment on OVCAR-8 ovarian it was 7.13 µM; with NCI-H522 lung, 2.51 µM. Besides, the TGI with UACC-62 melanoma is above 100 µM; in the experiment with RXF 393 renal it was above 100 µM; in the experiment on T-47D breast it was 9.11 µM; with SF-539 CNS, above 100 µM; in the experiment with UACC-257 melanoma it was 55.9 µM; in the experiment with NCI/ADR-RES ovarian, above 100 µM. Moreover, the TGI with SK-MEL-28 melanoma is above 100 µM; with OVCAR-5 ovarian it was above 100 µM; in the experiment with OVCAR-8 ovarian, above 100 µM; in the experiment with NCI-H522 lung, 23 µM.
